How the values were obtained:
Conditions in all cases: 72 h
HL-60 [1] = system: HL-60
How it was run: (§1)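 Fifteen myeloid leukaemia lines in RPMI 1640 were treated for 72 h at 37 °C and 5% CO2 with five tenfold doses from 1 to 10,000 nM, in duplicate. ATP luminescence was normalised to vehicle and to a positive control at 10 µM, then fitted with a four-parameter log-logistic model. The IC50 came from these fits.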

KCL-22 [2] = system: KCL-22
How it was run: as §1

KG-1 [3] = system: KG-1
How it was run: as §1

ML-2 [4] = system: ML-2
How it was run: as §1

NOMO-1 [5] = system: NOMO-1
How it was run: as §1

HL-60 [6] = assay: cell viability (% survival relative to DMSO control); higher = less cytotoxic
How it was run: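 HL-60 cells grown in RPMI 1640 with 10% FBS were rescreened against the full library in 384-well plates, in duplicate, at five tenfold concentrations from 1 to 10,000 nM, alongside DMSO or 100 nM of one of three metabolic inhibitors for 72 h at 37 °C, 5% CO2. Reference wells contained DMSO or 10 μM proteasome inhibitor. Viability was read with CellTiter-Glo and normalised to these reference wells, and where reported, area under the curve was taken from four-parameter log-logistic fits in drc and PharmacoGx.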

BV-173 = assay: cell viability (% survival relative to DMSO control, bortezomib = 0%); higher = less cytotoxic
How it was run: (§2)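 Percent survival is reported as the mean of duplicate wells. Cells from 10 AML and 5 CML lines were plated in 384-well plates containing compounds at 1, 10, 100, 1000 or 10000 nM and kept for 72 h at 37 °C in 5% CO2. Readout used CellTiter-Glo luminescence, scaled so that vehicle equals 100% and a 10 µM positive control equals 0%.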

HEL = assay: as above
How it was run: as §2

HL-60 [7] = assay: as above
How it was run: as §2

K-562 = assay: as above
How it was run: as §2

KCL-22 [8] = assay: as above
How it was run: as §2

KG-1 [9] = assay: as above
How it was run: as §2

KU-812 = assay: as above
How it was run: as §2

LAMA-84 = assay: as above
How it was run: as §2

ML-2 [10] = assay: as above
How it was run: as §2

MOLM-13 = assay: as above
How it was run: as §2

MV4-11 = assay: as above
How it was run: as §2

Mono-Mac-6 = assay: as above
How it was run: as §2

NOMO-1 [11] = assay: as above
How it was run: as §2

SHI-1 = assay: as above
How it was run: as §2

THP-1 = assay: as above
How it was run: as §2

CCCCCN(C)CCC(O)(P(=O)(O)O)P(=O)(O)O [Ibandronate]
Conditions	IC50 (cell viability) [µM]
HL-60 [1]	> 10
KCL-22 [2]	> 10
KG-1 [3]	> 10
ML-2 [4]	> 10
NOMO-1 [5]	> 10

cell viability [%], HL-60 [6]
Conditions	0.001 µM	0.01 µM	0.1 µM	1 µM	10 µM
co-treatment: AZD3965 100 nM	101	90.6	108.2	94.15	99.33
co-treatment: DMSO vehicle	101	99.4	104	99.1	106
co-treatment: GSK2194069 100 nM	98.3	98.1	104	94.4	99
co-treatment: pictilisib 100 nM	103	87.2	101	94.3	99.9

cell viability [%]
Conditions	1 nM	10 nM	100 nM	1000 nM	10000 nM
BV-173	94.6	96	94.4	120	122
HEL	107	105	109	95.5	114
HL-60 [7]	92.4	111	103	90.5	142
K-562	113	92	81.9	102	101
KCL-22 [8]	107	105	95.1	99.8	112
KG-1 [9]	103	108	96.5	115	111
KU-812	88.2	90.9	89.9	110	105
LAMA-84	104	98.3	100	106	103
ML-2 [10]	94	110	97.2	114	112
MOLM-13	84.4	110	111	100	117
MV4-11	95	90.5	104	86.6	116
Mono-Mac-6	93.1	98.3	90	103	115
NOMO-1 [11]	99.6	99.3	94.4	109	112
SHI-1	108	108	103	98	107
THP-1	94.7	102	103	113	115

Cc1nc(-c2ccccc2)sc1C(=O)Nc1ccc(S(N)(=O)=O)cc1
Conditions	IC50 (cell viability) [µM]
HL-60 [1]	> 10
KCL-22 [2]	> 10
KG-1 [3]	> 10
ML-2 [4]	> 10
NOMO-1 [5]	> 10

cell viability [%], HL-60 [6]
Conditions	0.001 µM	0.01 µM	0.1 µM	1 µM	10 µM
co-treatment: AZD3965 100 nM	101	109	96	94.8	99.97
co-treatment: DMSO vehicle	103	109	100.3	97.5	98.6
co-treatment: GSK2194069 100 nM	99.3	104	85.9	91.2	96.25
co-treatment: pictilisib 100 nM	101	97.6	92	97.9	99.5

cell viability [%]
Conditions	1 nM	10 nM	100 nM	1000 nM	10000 nM
BV-173	115	103	85.1	97.8	109
HEL	110	112	106	89.3	105
HL-60 [7]	109	85	117	103	97.2
K-562	103	109	105	114	109
KCL-22 [8]	98.7	99.1	105	79.8	102
KG-1 [9]	118	104	98.5	93.3	102
KU-812	108	102	96.4	91	104
LAMA-84	107	99.9	102	96.2	111
ML-2 [10]	111	104	99.8	107	100
MOLM-13	102	112	127	106	99.7
MV4-11	106	112	105	105	93.8
Mono-Mac-6	121	102	98.7	97.3	108
NOMO-1 [11]	113	98.2	96.6	101	99.6
SHI-1	109	106	104	103	111
THP-1	107	103	97	94.7	97.7

CCN(CC)C(=S)SSC(=S)N(CC)CC [Disulfiram]
Conditions	IC50 (cell viability) [µM]
HL-60 [1]	> 10
KCL-22 [2]	> 10
KG-1 [3]	0.272
ML-2 [4]	0.264
NOMO-1 [5]	> 10

cell viability [%], HL-60 [6]
Conditions	0.001 µM	0.01 µM	0.1 µM	1 µM	10 µM
co-treatment: AZD3965 100 nM	104	101	98.7	96.7	101
co-treatment: DMSO vehicle	100.9	100.4	105	94	98.66
co-treatment: GSK2194069 100 nM	100	95.7	102	93.1	102
co-treatment: pictilisib 100 nM	105.2	86.4	107	71.25	102

cell viability [%]
Conditions	1 nM	10 nM	100 nM	1000 nM	10000 nM
BV-173	96	103	97.6	37.5	-0.175
HEL	101	86.8	96.6	87.9	68
HL-60 [7]	100	104	89.2	83.3	93.7
K-562	90.2	99.1	89.8	29.7	70.9
KCL-22 [8]	72.4	92.3	94.4	61.3	62.7
KG-1 [9]	92.7	89.8	92.7	2.8	22
KU-812	99.7	99.3	97	66	66.9
LAMA-84	93.5	94.5	94.4	90.8	67.7
ML-2 [10]	92	106	91.4	6.36	11.6
MOLM-13	94.1	76.7	93.3	98.2	92.7
MV4-11	94.1	114	98.3	88.7	53.5
Mono-Mac-6	91.9	100	67.9	25.5	62.5
NOMO-1 [11]	95.3	99.4	101	92	88.9
SHI-1	87.7	92.8	44.8	-0.354	65.1
THP-1	94.5	95.6	48.1	30.5	57.4

Reference: the supplement of paper PMC8671470
